Results as given in the NIST ThermoML archive (doi:10.1016/j.jct.2015.11.013).
“And” between values parts separate entries of the source, which are not always exact repeats. Equal values may be shown once.

Assay: cn = amount concentration of the nth substance listed, in mol/dm3
Details: 298.15 K, 101.3 kPa, Liquid, Taylor dispersion method

SMILES | binary diffusion coefficient (c1 = 0.00075) | binary diffusion coefficient (c1 = 0.001) | binary diffusion coefficient (c1 = 0.0015) | binary diffusion coefficient (c1 = 0.002) | binary diffusion coefficient (c1 = 0.0025) | binary diffusion coefficient (c1 = 0.025) | binary diffusion coefficient (c1 = 0.05) | binary diffusion coefficient (c1 = 0.075) | binary diffusion coefficient (c1 = 0.085) | binary diffusion coefficient (c1 = 0.1)
CCCCCCCC(=O)O [octanoic acid] + O | 1.19e-09 m2/s | 1.08e-09 m2/s | 9.5e-10 m2/s | 8.72e-10 m2/s | 8.49e-10 m2/s and 8.5e-10 m2/s |  |  |  |  | 
CCCCCCCC(=O)[O-].[Na+] [sodium octanoate] + O |  |  |  |  |  | 8.56e-10 m2/s | 8.54e-10 m2/s | 8.52e-10 m2/s | 8.51e-10 m2/s | 8.5e-10 m2/s
OC[C@H]1O[C@@H]2O[C@H]3[C@H](O)[C@@H](O)[C@@H](O[C@H]4[C@H](O)[C@@H](O)[C@@H](O[C@H]5[C@H](O)[C@@H](O)[C@@H](O[C@H]6[C@H](O)[C@@H](O)[C@@H](O[C@H]7[C@H](O)[C@@H](O)[C@@H](O[C@H]1[C@H](O)[C@H]2O)O[C@@H]7CO)O[C@@H]6CO)O[C@@H]5CO)O[C@@H]4CO)O[C@@H]3CO [α-cyclodextrin] + O |  |  |  |  | 3.53e-10 m2/s |  |  |  |  | 
